{
  "source": "patent US9889093B2",
  "about": "“Application of andrographolide in the preparation of a pharmaceutical for treatment of inflammatory bowel disease, andrographolide enteric targeting micropellet, and method for preparation thereof” (TASLY PHARMACEUTICAL GROUP CO., LTD., priority 2013, dated 2018)",
  "type_in_all_cases": "in vivo",
  "key": {"[1]": {"system": "zebra fish", "experiment": "Exploration of concentration in zebra fish (toxicity and death)", "details": "0.1 to 500 μg/mL in fish farm water, 30 zebra fishes per concentration", "protocol": "Fish farm water of wild-type AB strain zebra fish Crohn's disease model (1 L reverse osmosis water was added with 200 mg instant sea salt with a conductivity of […], pH value of 6.9˜7.2 and hardness of 53.7˜71.6 mg/L CaCO3) was added with the andrographolide in the concentrations of 0 μg/mL, 0.1 μg/mL, 1 μg/mL, 10 μg/mL, 100 μg/mL and 500 μg/mL. At each concentration, 30 zebra fishes were treated, during which death number of the zebra fishes was counted daily and the dead fishes were removed in time. After treatment, the death number of the zebra fishes in each group was analyzed statistically to draw the optimum concentration-effect curve by using JMP software and calculate MNLC. […] As a result, the following four concentrations were selected for efficacy evaluation in Crohn's disease in this study: 50 μg/mL, 100 μg/mL, 250 μg/mL and 500 μg/mL."}, "[2]": {"system": "TNBS-induced UC rats", "experiment": "TNBS-induced UC rat model, different administration routes", "details": "for Gross morphological injury score / Ulcer ratio: 5 days", "text": "4 Dose Designing and Grouping • 4.1 Grouping: quarantine-qualified 84 rats were all used for making UC model. The successful rats were randomly divided into 6 groups: the model control group, the positive control group, the andrographolide low-dose intragastric group, the andrographolide high-dose intragastric group, the andrographolide low-dose intracolonical group and the andrographolide high-dose intracolonical group, 14 rats per group. • 4.2 Dose: the same doses were adopted in both intragastric and intracolonical groups. Animals were not treated in the model control group, the positive control group (mesalazine enteric tablet, 420 mg·kg^−1·d^−1), the andrographolide low-dose intragastric group (30 mg·kg^−1·d^−1), the andrographolide high-dose intragastric group (90 mg·kg^−1·d^−1), the andrographolide low-dose intracolonical group (30 mg·kg^−1·d^−1) and the andrographolide high-dose intracolonical group (90 mg·kg^−1·d^−1).\n5. Method • 5.1 Method of making UC model: the rats were anesthetized. 2 mm-diameter latex tube was gently inserted into the position about 8 cm inside the body of the rats through anus, and TNBS in 50% ethanol solution (TNBS 125 mg/kg) was injected into intestinal lumen with an injector by one time, 0.5 ml/rat. The tail of the rat was lifted up for 30 s to make the model making agent (i.e., TNBS) fully infiltrate into the intestinal lumen of the rats. • 5.2 Method of administration: the same dose (1 mL/100 g) was adopted in both intragastric and intracolonical administration, once daily for consecutive 5 days. • 5.3 Method for sampling in experiment: 2 hours after the last administration, the rats were killed by cervical vertebra dislocation and abdomen was opened to separate the colon. Along mesenteric side, the intestinal lumen was cut and rinsed with 4° C. normal saline and spread on a plastic plate. • 5.4 Scoring method for colon gross morphological injury was referred to scoring method for mucosal injury (Bjelkengren G, Aronsen K F, Augustsson N E, etc. Radioprotective effect of local administration of lysine vasopressin and triglycyl lysine vasopressin on the rectal mucosa in rats[J]. Acta Oncol, 1995, 34(4):487-92) to record the mucosal injury score: dotted line blooding and small red spots (<1 mm): 1 score, piece blooding and big red spots (=1 mm): 3 score; and erosion and ulcer: 5 score.\nData were expressed as mean+standard deviation (x±S). All numerical variables were analyzed with SPSS13.0 software by one-way ANOVA. T-test analysis was used for inter-group comparison."}, "[3]": {"system": "zebra fish Crohn's disease model", "experiment": "Zebra fish Crohn's disease model (TNBS), efficacy", "details": "48 hours", "protocol": "Crohn's disease model (mainly inflammation) was built by using TNBS (2,4,6-trinitrobenzenesulfonic acid), and 30 zebra fishes were randomly divided into each treating group. […] Image analysis software was used to analyze the pictures. Moreover, the intestinal mucosal thickness, intestinal lumen diameter and intestinal lumen area were observed carefully under a microscope and the intestinal lumen diameter and intestinal lumen area were analyzed quantitatively. Therapeutical efficacy of the tested drug in zebra fish Crohn's disease was calculated in accordance with the intestinal lumen area in each group. The calculation formula was presented as follows: Therapeutical efficacy (%)=[1−(the administration group−the blank control group)/(the model group−the blank control group)]×100%\nStatistically analyzed results were expressed as mean±SE. Variance analysis was used for comparison among many groups, and Dunnett's T test for comparison between two groups."}, "[4]": {"details": "andrographolide high-dose 90 mg/kg, intracolonical"}, "[5]": {"details": "andrographolide high-dose 90 mg/kg, intragastric"}, "[6]": {"details": "andrographolide low-dose 30 mg/kg, intracolonical"}, "[7]": {"details": "andrographolide low-dose 30 mg/kg, intragastric"}},
  "note": "Marks after values point to notes of the source that are not given here.",
  "data": [
    {"smiles": "C=C1CC[C@@H]2[C@](C)(CO)[C@H](O)CC[C@@]2(C)[C@@H]1C/C=C1/C(=O)OC[C@H]1O", "note": "[Andrographolide]", "values": [
      {"measurement": "Toxicity and death in zebra fish", "setting": "[1]", "result": "no toxicity and death were found"},
      {"measurement": "Gross morphological injury score", "setting": "[2]; [4]", "result": "1.96 ± 1.09"},
      {"measurement": "Ulcer ratio", "setting": "[2]; [4]", "result": "17.21** %"},
      {"measurement": "Gross morphological injury score", "setting": "[2]; [5]", "result": "3.25 ± 1.98"},
      {"measurement": "Ulcer ratio", "setting": "[2]; [5]", "result": "29.21** %"},
      {"measurement": "Formless watery stool symptoms, course", "setting": "[2]; andrographolide high-dose intragastric and intracolonical groups, 90 mg/kg", "result": "totally disappeared on the 4th˜5th days"},
      {"measurement": "Gross morphological injury score", "setting": "[2]; [6]", "result": "6.53 ± 2.12"},
      {"measurement": "Ulcer ratio", "setting": "[2]; [6]", "result": "38.54* %"},
      {"measurement": "Gross morphological injury score", "setting": "[2]; [7]", "result": "6.71 ± 2.57"},
      {"measurement": "Ulcer ratio", "setting": "[2]; [7]", "result": "45.69* %"},
      {"measurement": "Intestinal lumen area reduced by (therapeutical efficacy)", "setting": "[3]; andrographolide 50 μg/ml", "result": "38±12.9", "unit": "%"},
      {"measurement": "Intestinal lumen area reduced by (therapeutical efficacy)", "setting": "[3]; andrographolide 100 μg/ml", "result": "49±8.9", "unit": "%"},
      {"measurement": "Intestinal lumen area reduced by (therapeutical efficacy)", "setting": "[3]; andrographolide 250 μg/ml", "result": "65±14.7", "unit": "%"}
    ]}
  ]
}
